Measurements published in patent US10450297B2, “Sulfonyl amide derivatives for the treatment of abnormal cell growth” (Pfizer, Inc., priority 2007, dated 2019).

Molecular target: FAK kinase (catalytic construct FAK(410-689)) (Homo sapiens (Human), UniProt Q05397)
Assay: FAKcd kinase ELISA (inhibition of poly-glu-tyr phosphorylation by FAK(410-689))
Assay type: biochemical
Details: 50 μM final ATP

Sequence of FAK kinase (catalytic construct FAK(410-689)) (Q05397 410-689): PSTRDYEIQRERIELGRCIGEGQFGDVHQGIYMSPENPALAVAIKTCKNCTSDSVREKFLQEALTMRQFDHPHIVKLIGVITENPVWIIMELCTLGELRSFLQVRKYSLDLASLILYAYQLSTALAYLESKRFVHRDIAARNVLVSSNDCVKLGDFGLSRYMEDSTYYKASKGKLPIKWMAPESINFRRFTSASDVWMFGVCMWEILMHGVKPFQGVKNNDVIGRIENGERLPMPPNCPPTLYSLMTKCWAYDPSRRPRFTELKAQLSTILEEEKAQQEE

IC50 | SMILES
4.08 nM | CN(c1ncccc1CNc1nc(Nc2cccc(C(=O)N3CC[C@@H](O)C3)c2)ncc1C(F)(F)F)S(C)(=O)=O [Compound 175, N-{3-[({2-[(3-{[(3R)-3-hydroxypyrrolidin-1-yl]carbonyl}phenyl)amino]-5-(trifluoromethyl)pyrimidin-4-yl}amino)methyl]pyridin-2-yl}-N-methyl-methanesulfonamide]
5.93 nM | CN(c1ncccc1CNc1nc(Nc2cccc(C(=O)N3CCC(F)(F)C3)c2)ncc1C(F)(F)F)S(C)(=O)=O [Compound 177, N-[3-({(2-({3-[(3,3-difluoropyrrolidin-1-yl)carbonyl]phenyl}amino)-5-(trifluoromethyl)pyrimidin-4-yl]amino}methyl)pyridin-2-yl]-N-methylmethane-sulfonamide]
1.09 nM | CC(C)[C@@H](CO)NC(=O)c1cccc(Nc2ncc(C(F)(F)F)c(NCc3cccnc3N(C)S(C)(=O)=O)n2)c1 [Compound 179, N-[(1S)-1-(hydroxymethyl)-2-methylpropyl]-3-({4-[({2-[methyl(methylsulfonyl)amino]pyridin-3-yl}methyl)amino]-5-(trifluoromethyl)pyrimidin-2-yl}amino)benzamide]
9.18 nM | COCCCN(C)C(=O)c1cccc(Nc2ncc(C(F)(F)F)c(NCc3cccnc3N(C)S(C)(=O)=O)n2)c1 [Compound 181, N-(3-methoxypropyl)-N-methyl-3-({4-[({2-[methyl(methylsulfonyl)amino]pyridin-3-yl}methyl)amino]-5-(trifluoromethyl)pyrimidin-2-yl}amino)benzamide]
1.96 nM | CC[C@@H](CO)NC(=O)c1cccc(Nc2ncc(C(F)(F)F)c(NCc3cccnc3N(C)S(C)(=O)=O)n2)c1 [Compound 183, N-[(1S)-1-(hydroxymethyl)propyl]-3-({4-[({2-[methyl(methylsulfonyl)amino]pyridin-3-yl}methyl)amino]-5-(trifluoromethyl)pyrimidin-2-yl}amino)benzamide]
2.17 nM | CN(c1ncccc1CNc1nc(Nc2cccc(C(=O)NC3CCC3)c2)ncc1C(F)(F)F)S(C)(=O)=O [Compound 185, N-cyclobutyl-3-({4-[({2-[methyl(methylsulfonyl)amino]pyridin-3-yl}methyl)amino]-5-(trifluoromethyl)pyrimidin-2-yl}amino)benzamide]
4.3 nM | CC(C)NC(=O)c1cccc(Nc2ncc(C(F)(F)F)c(NCc3cccnc3N(C)S(C)(=O)=O)n2)c1 [Compound 189, N-isopropyl-3-({4-[({2-[methyl(methylsulfonyl)amino]pyridin-3-yl}methyl)amino]-5-(trifluoromethyl)pyrimidin-2-yl}amino)benzamide]
5.5 nM | CN(c1ncccc1CNc1nc(Nc2cccc(C(=O)NCc3ccccc3)c2)ncc1C(F)(F)F)S(C)(=O)=O [Compound 191, N-benzyl-3-({4-[({2-[methyl(methylsulfonyl)amino]pyridin-3-yl}methyl)amino]-5-(trifluoromethyl)pyrimidin-2-yl}amino)benzamide]
1.1 nM | CCCN(CCO)C(=O)c1cccc(Nc2ncc(C(F)(F)F)c(NCc3cccnc3N(C)S(C)(=O)=O)n2)c1 [Compound 193, N-(2-hydroxyethyl)-3-({4-[({2-[methyl(methylsulfonyl)amino]pyridin-3-yl}methyl)amino]-5-(trifluoromethyl)pyrimidin-2-yl}amino)-N-propylbenzamide]
6.81 nM | CCN(CCOC)C(=O)c1cccc(Nc2ncc(C(F)(F)F)c(NCc3cccnc3N(C)S(C)(=O)=O)n2)c1 [Compound 195, N-ethyl-N-(2-methoxyethyl)-3-({4-[({2-[methyl(methylsulfonyl)amino]pyridin-3-yl}methyl)amino]-5-(trifluoromethyl)pyrimidin-2-yl}amino)benzamide]
4.47 nM | CC1CCN(C(=O)c2cccc(Nc3ncc(C(F)(F)F)c(NCc4cccnc4N(C)S(C)(=O)=O)n3)c2)CC1 [Compound 197, N-methyl-N-[3-({[2-({3-[(4-methylpiperidin-1-yl)carbonyl]phenyl}amino)-5-(trifluoromethyl)pyrimidin-4-yl]amino}methyl)pyridin-2-yl]methanesulfonamide]
2.56 nM | CN1CCN(C(=O)c2cccc(Nc3ncc(C(F)(F)F)c(NCc4cccnc4N(C)S(C)(=O)=O)n3)c2)CC1 [Compound 199, N-methyl-N-[3-({[2-({3-[(4-methylpiperazin-1-yl)carbonyl]phenyl}amino)-5-(trifluoromethyl)pyrimidin-4-yl]amino}methyl)pyridin-2-yl]methanesulfonamide]
1.64 nM | CN(c1ncccc1CNc1nc(Nc2cccc(C(=O)NC(C)(C)CO)c2)ncc1C(F)(F)F)S(C)(=O)=O [Compound 201, N-(2-hydroxy-1,1-dimethylethyl)-3-({4-[({2-[methyl(methylsulfonyl)amino]pyridin-3-yl}methyl)amino]-5-(trifluoromethyl)pyrimidin-2-yl}amino)benzamide]
1.13 nM | CCC(CO)NC(=O)c1cccc(Nc2ncc(C(F)(F)F)c(NCc3cccnc3N(C)S(C)(=O)=O)n2)c1 (stereo not shown) [Compound 203, N-[1-(hydroxymethyl)propyl]-3-({4-[({2-[methyl(methylsulfonyl)amino]pyridin-3-yl}methyl)amino]-5-(trifluoromethyl)pyrirnidin-2-yl}amino)benzamide]
3.2 nM | CN(C)CCNC(=O)c1cccc(Nc2ncc(C(F)(F)F)c(NCc3cccnc3N(C)S(C)(=O)=O)n2)c1 [Compound 205, N-[2-(dimethylamino)ethyl]-3-({4-[({2-[methyl(methylsulfonyl)amino]pyridin-3-yl}methyl)amino]-5-(trifluoromethyl)pyrimidin-2-yl}amino)benzamide]
2.78 nM | C[C@@H]1COCCN1C(=O)c1cccc(Nc2ncc(C(F)(F)F)c(NCc3cccnc3N(C)S(C)(=O)=O)n2)c1 [Compound 207, N-methyl-N-{3-[({2-[(3-{[(3R)-3-methylmorpholin-4-yl]carbonyl}phenyl)amino]-5-(trifluoromethyl)pyrimidin-4-yl}amino)methyl]pyridin-2-yl}methanesulfonamide]
3.68 nM | CCCC1(NC(=O)c2cccc(Nc3ncc(C(F)(F)F)c(NCc4cccnc4N(C)S(C)(=O)=O)n3)c2)CC1 [Compound 209, 3-({4-[({2-[methyl(methylsulfonyl)amino]pyridin-3-yl}methyl)amino]-5-(trifluoromethyl)pyrimidin-2-yl}amino)-N-(1-propylcyclopropyl)benzamide]
1.06 nM | C[C@@H](CO)NC(=O)c1cccc(Nc2ncc(C(F)(F)F)c(NCc3cccnc3N(C)S(C)(=O)=O)n2)c1 [Compound 211, N-[(1S)-2-hydroxy-1-methylethyl]-3-({4-[({2-[methyl(methylsulfonyl)amino]pyridin-3-yl}methyl)amino]-5-(trifluoromelhyl)pyrimidin-2-yl}amino)benzamide]
2.88 nM | CN(c1ncccc1CNc1nc(Nc2cccc(C(=O)N3CCNC(=O)C3)c2)ncc1C(F)(F)F)S(C)(=O)=O [Compound 213, N-methyl-N-[3-({[2-({3-[(3-oxopiperazin-1-yl)carbonyl]phenyl}amino)-5-(trifluoromethyl)pyrimidin-4-yl]amino}methyl)pyridin-2-yl]methanesulfonamide]
0.7 nM | CN(c1ncccc1CNc1nc(Nc2cccc(CN)c2)ncc1C(F)(F)F)S(C)(=O)=O [Compound 214, N-[3-({[2-{[3-(aminomethyl)phenyl]amino}-5-(trifluoromethyl)pyrimidin-4-yl]amino}methyl)pyridin-2-yl]-N-methylmethane-sulfonamide]
0.6 nM | CC(=O)NCC(=O)NCc1ccc(Nc2ncc(C(F)(F)F)c(NCc3cccnc3N(C)S(C)(=O)=O)n2)cc1 [Compound 215, N~2~-acetyl-N-[4-({4-[({2-[methyl(methylsulfonyl)amino]pyridin-3-yl}methyl)amino]-5-(trifluoromethyl)pyrimidin-2-yl}amino)benzyl]glycinamide]
0.6 nM | CN(c1ncccc1CNc1nc(Nc2ccc(CNC(N)=O)cc2)ncc1C(F)(F)F)S(C)(=O)=O [Compound 216, N-{3-[({2-[(4-{[(aminocarbonyl)amino]-methyl}phenyl)amino]-5-(trifluoromethyl)pyrimidin-4-yl}amino)methyl]pyridin-2-yl}-N-methylmethane-sulfonamide]
0.6 nM | CN(c1ncccc1CNc1nc(Nc2ccc(CC(=O)NC3CC3)cc2)ncc1C(F)(F)F)S(C)(=O)=O [Compound 217, N-cyclopropyl-2-[4-({4-[({2~ [methyl(methylsulfonyl)amino]pyridin-3-yl}methyl)amino]-5-(trifluoromethyl)pyrimidin-2-yl}amino)phenyl]acetamide]
0.6 nM | CC(=O)NCc1cccc(Nc2ncc(C(F)(F)F)c(NCc3cccnc3N(C)S(C)(=O)=O)n2)c1 [Compound 218, N-[3-({4-[({2-[methyl(methylsulfonyl)amino]pyridin-3-yl}methyl)amino]-5-(trifluoromethyl)pyrimidin-2-yl}amino)benzyl]acetamide]
0.6 nM | CN(c1ncccc1CNc1nc(Nc2ccc(C(=O)OC(C)(C)C)cc2)ncc1C(F)(F)F)S(C)(=O)=O [Compound 219, tert-butyl 4-({4-[({2-[methyl(methylsulfonyl)amino]pyridin-3-yl}methyl)amino]-5-(trifluoromethyl)pyrimidin-2-yl}amino)benzoate]
0.6 nM | Cc1ccc(C#N)cc1Nc1ncc(C(F)(F)F)c(NCc2cccnc2N(C)S(C)(=O)=O)n1 [Compound 220, N-{3-[({2-[(5-cyano-2-methylphenyl)amino]-5-(trifluoromethyl)pyrimidin-4-yl}amino)methyl]pyridin-2-yl}-N-methylmethane-sulfonamide]
188 nM | Cc1cc(Nc2ncc(C(F)(F)F)c(NCc3cccnc3N(C)S(C)(=O)=O)n2)ccn1 [Compound 221, N-methyl-N-{3-[({2-[(2-methylpyridin-4-yl)amino]-5-(trifluoromethyl)pyrimidin-4-yl}amino)methyl]pyridin-2-yl}methanesulfonamide]
0.6 nM | CN(c1ncccc1CNc1nc(Nc2cccc(CNC(N)=O)c2)ncc1C(F)(F)F)S(C)(=O)=O [Compound 222, N-{3-[({2-[(3-{[(aminocarbonyl)amino]-methyl}phenyl)amino]-5-(trifluoromethyl)pyrimidin-4-yl}amino)methyl]pyridin-2-yl}-N-methylrnethanesulfonamide]
